Columns and labels:
Assay type in all cases: cell-based
[1] = system: white spruce somatic embryos; assay: Lipid (TL, TAG) content and fatty acid composition of somatic embryos; settings: 7.5% PEG, 8 weeks; for Fatty acid composition of TAG (%) 18:2^b: FA col 7/9; for Fatty acid composition of TAG (%) ΣC-20, 22^c: FA col 9/9
Experimental: Experiments were set up to observe the effects of different culture conditions on somatic embryo lipid biosynthesis. […] Sigma, St Louis, USA). […] Somatic embryos were maintained on these media for 4 weeks in the dark prior to lipid analysis. […] The lipid contents of immature somatic embryos from suspension culture were also determined. Investigations were conducted to observe the effects of different ABA concentrations, in the presence of PEG, on lipid biosynthesis. […] Matured somatic embryos were transferred on their filter-paper supports to unsealed petri dishes which were then placed within the 81% r.h. desiccator. Total secondary desiccation treatment time was 2 weeks. […] Results were compared to those of somatic embryos matured under the same conditions but not further desiccated. The whole white spruce seeds, isolated zygotic embryos, somatic embryos from the various treatments, and regenerated plantlets and zygotic seedlings were counted, blotted dry, and fresh weights determined. The samples were then placed in an oven at 80° C. for 24 h and dry weights recorded. Lipids were extracted from fresh tissues by the hexane/isopropane method of Hara and Radin (1978), after first placing the samples in boiling isopropane for 10 min. TAGs were separated from total lipid extracts by thin layer chromatography using […] 60 plates (Mandel Scientific Co., Toronto, Canada). […] TAGs were identified using authentic standards and scraped from the plates using a razor blade. Fatty acid methyl esters ([…] prepared from TAGs and total lipid extracts, as previously described (Pomeroy et al. 1991). […] Each lipid extract sample was divided into 2-3 replicates for analysis, and experiments were repeated three times. Results shown are means of one experiment.

[2] = system: white spruce somatic embryos; assay: Molecular size threshold of solutes for promoting maturation; settings: 20 μM ABA; for Mature embryos per replicate (± SE): solute 7.5% added to 3% sucrose base, 9 weeks; for recovery of mature embryos: solute at 2.5 and 5% (w/v), 3% sucrose base
Experimental: In order to determine the effective molecular weight and size range of solutes that promote the maturation of immature white spruce somatic embryos, they were matured in half-strength LP maturation medium containing a range of different solutes of differing molecular weight. Five replicates were prepared per treatment, and treatments were repeated twice. […] The treatment time was 9 weeks. […] The somatic embryos remained wet throughout the maturation treatment which led to poorly formed embryos at low frequency. […] For all treatments, only normal looking cotyledonary stage opaque white embryos were scored and used for lipid analyses. Levels of lipid triacylglycerols (TAGs) were analyzed as described later and results provided are means of two replicates.

[3] = system: white spruce somatic embryos; assay: Somatic embryo maturation with PEG-4000 (maturation frequency); settings: preliminary experiments
Experimental: Maturation of somatic embryos was carried out using methods modified from Attree et al. (1990). Suspension cultured somatic embryos were washed and resuspended (20% w/v) in half-strength PGR-free BM containing 3% sucrose, to remove the previous PGRs, then 0.75 ml aliquots were pipetted onto filter paper supports (Whatman no. 2) on the surface of maturation medium. The supports facilitated subsequent transfers to fresh media. To determine the mean number of somatic embryos plated, 10 μl samples of the 20% suspension were stained with acetocarmine (B.D.H.) and counted (repeated 15 times). The plated somatic embryos were maintained on the maturation medium for 4 weeks in the dark. To test the effect of increased osmoticum, the following concentrations of PEG-4000 (Fluka AG) were included in the maturation medium; 0, 2.5, 5.0, 7.5 and 10% (w/v) (25 replicates per treatment). Maturation frequencies per treatment were calculated as the percent mean number of somatic embryos that matured to normal-looking cotyledonary embryos. Maturation frequency results are shown in FIG. 1 (±confidence limits, P=0.05)
The application of PEG-4000 in the presence of 16 μM ABA for 28 d promoted the maturation of white spruce somatic embryos (FIG. 1). The mean number of immature somatic embryos plated per replicate was 560, and maturation results are based upon a total of 4087 mature embryos recovered. […]

[4] = ABA 12 μM, desiccated (D) 2 weeks 81% r.h.
[5] = ABA 16 μM, desiccated (D) 2 weeks 81% r.h.
[6] = ABA 24 μM, desiccated (D) 2 weeks 81% r.h.
[7] = ABA 32 μM, desiccated (D) 2 weeks 81% r.h.

CC1=CC(=O)CC(C)(C)C1(O)/C=C/C(C)=C\C(=O)O (racemic) [ABA, abscisic acid]
TAG % d wt [1, 4]: 26 % d wt | TAG μg (embryo)^−1 [1, 4]: 186.6 μg (embryo)^−1 | TAG/TL % [1, 4]: 85% | TL % d wt [1, 4]: 31 % d wt | TL μg (embryo)^−1 [1, 4]: 220 μg (embryo)^−1 | TAG % d wt ([1]; ABA 12 μM, hydrated (H)): 14 % d wt | TAG μg (embryo)^−1 ([1]; ABA 12 μM, hydrated (H)): 116 μg (embryo)^−1 | TAG/TL % ([1]; ABA 12 μM, hydrated (H)): 79% | TL % d wt ([1]; ABA 12 μM, hydrated (H)): 18 % d wt | TL μg (embryo)^−1 ([1]; ABA 12 μM, hydrated (H)): 146 μg (embryo)^−1 | TAG % d wt [1, 5]: 28 % d wt | TAG μg (embryo)^−1 [1, 5]: 214 μg (embryo)^−1 | TAG/TL % [1, 5]: 82% | TL % d wt [1, 5]: 35 % d wt | TL μg (embryo)^−1 [1, 5]: 260 μg (embryo)^−1 | TAG % d wt ([1]; ABA 16 μM, hydrated (H)): 17 % d wt | TAG μg (embryo)^−1 ([1]; ABA 16 μM, hydrated (H)): 143 μg (embryo)^−1 | TAG/TL % ([1]; ABA 16 μM, hydrated (H)): 80% | TL % d wt ([1]; ABA 16 μM, hydrated (H)): 22 % d wt | TL μg (embryo)^−1 ([1]; ABA 16 μM, hydrated (H)): 179 μg (embryo)^−1 | TAG % d wt [1, 6]: 30 % d wt | TAG μg (embryo)^−1 [1, 6]: 186.2 μg (embryo)^−1 | TAG/TL % [1, 6]: 80% | TL % d wt [1, 6]: 37 % d wt | TL μg (embryo)^−1 [1, 6]: 232.5 μg (embryo)^−1 | TAG % d wt ([1]; ABA 24 μM, hydrated (H)): 20 % d wt | TAG μg (embryo)^−1 ([1]; ABA 24 μM, hydrated (H)): 131 μg (embryo)^−1 | TAG/TL % ([1]; ABA 24 μM, hydrated (H)): 77% | TL % d wt ([1]; ABA 24 μM, hydrated (H)): 26 % d wt | TL μg (embryo)^−1 ([1]; ABA 24 μM, hydrated (H)): 170 μg (embryo)^−1 | TAG % d wt [1, 7]: 20 % d wt | TAG μg (embryo)^−1 [1, 7]: 170 μg (embryo)^−1 | TAG/TL % [1, 7]: 64% | TL % d wt [1, 7]: 31 % d wt | TL μg (embryo)^−1 [1, 7]: 264 μg (embryo)^−1 | TAG % d wt ([1]; ABA 32 μM, hydrated (H)): 17 % d wt | TAG μg (embryo)^−1 ([1]; ABA 32 μM, hydrated (H)): 130 μg (embryo)^−1 | TAG/TL % ([1]; ABA 32 μM, hydrated (H)): 67% | TL % d wt ([1]; ABA 32 μM, hydrated (H)): 26 % d wt | TL μg (embryo)^−1 ([1]; ABA 32 μM, hydrated (H)): 193 μg (embryo)^−1 | Fatty acid composition of TAG (%) 18:2^b ([1]; ABA 12 μM, D (81% r.h.)): 15.4% | Fatty acid composition of TAG (%) 18:2^b ([1]; ABA 12 μM, H): 13.2% | Fatty acid composition of TAG (%) 18:2^b ([1]; ABA 16 μM, D (81% r.h.)): 15.4% | Fatty acid composition of TAG (%) 18:2^b ([1]; ABA 16 μM, H): 13.5% | Fatty acid composition of TAG (%) 18:2^b ([1]; ABA 24 μM, D (81% r.h.)): 15% | Fatty acid composition of TAG (%) 18:2^b ([1]; ABA 24 μM, H): 14.7% | Fatty acid composition of TAG (%) 18:2^b ([1]; ABA 32 μM, D (81% r.h.)): 14.9% | Fatty acid composition of TAG (%) 18:2^b ([1]; ABA 32 μM, H): 14.6% | Fatty acid composition of TAG (%) ΣC-20, 22^c ([1]; ABA 12 μM, D (81% r.h.)): 1.4% | Fatty acid composition of TAG (%) ΣC-20, 22^c ([1]; ABA 12 μM, H): 1.4% | Fatty acid composition of TAG (%) ΣC-20, 22^c ([1]; ABA 16 μM, D (81% r.h.)): 1.5% | Fatty acid composition of TAG (%) ΣC-20, 22^c ([1]; ABA 16 μM, H): 1% | Fatty acid composition of TAG (%) ΣC-20, 22^c ([1]; ABA 24 μM, D (81% r.h.)): 1.5% | Fatty acid composition of TAG (%) ΣC-20, 22^c ([1]; ABA 24 μM, H): 1.2% | Fatty acid composition of TAG (%) ΣC-20, 22^c ([1]; ABA 32 μM, D (81% r.h.)): 2.5% | Fatty acid composition of TAG (%) ΣC-20, 22^c ([1]; ABA 32 μM, H): 1.6%

OC[C@@H](O)[C@@H](O)[C@H](O)[C@H](O)CO [Mannitol, mannitol]
Mature embryos per replicate (± SE) [2]: 0 | recovery of mature embryos [2]: did not result in recovery of any mature embryos

OC[C@H]1O[C@@](CO)(O[C@H]2O[C@H](CO)[C@@H](O)[C@H](O)[C@H]2O)[C@@H](O)[C@@H]1O [Sucrose, sucrose]
Mature embryos per replicate (± SE) [2]: 0 | recovery of mature embryos [2]: did not result in recovery of any mature embryos | maturation frequencies, visual comparison ([3]; 6% sucrose): lower maturation frequencies | growth, visual comparison ([3]; 9% sucrose): no growth
